Where two headings read alike, the source gives them in different places.
Legend:
[1] = tested on: Lactobacillus plantarum PN0512; assay: Growth of L. plantarum PN0512 in the presence of butanols at different temperatures; format: cell-based; parameters: key to Growth at 37° C. / Growth at 30° C. / Growth at 25° C.: +: growth observed as an increase in OD600.; −: no growth observed, i.e. no change in OD600
Method: Tolerance levels of bacterial strain Lactobacillus plantarum PN0512 (ATCC # PTA-7727) were determined at 25° C., 30° C. and 37° C. as follows. The strain was cultured in S30L medium (i.e., 10 mM ammonium sulfate, 5 mM potassium phosphate buffer, pH 7.0, 50 mM MOPS, pH 7.0, 2 mM MgCl2, 0.7 mM CaCl2, 50 μM MnCl2, 1 μM FeCl3, 1 μM ZnCl2, 1.72 μM CuCl2, 2.53 μM CoCl2, 2.42 μM Na2MoO4, 2 μM thiamine hydrochloride, 10 mM glucose, and 0.2% yeast extract). An overnight culture in the absence of any test compound was started in 15 mL of the S30L medium in a 150 mL flask, with incubation at 37° C. in a shaking water bath. The next morning, the overnight culture was diluted into three 500 mL flasks containing 150 mL of fresh medium to an initial OD600 of about 0.08. Each flask was incubated in a shaking water bath, one each at 25° C., 30° C. and 37° C. Each large culture was allowed to acclimate at the test temperature for at least 0.5 h. […] Growth was followed by measuring OD600 for six hours after addition of the compounds.

E. coli strain MG1655 = tested on: E. coli strain MG1655
Method: A similar study was done with log-phase cultures of E. coli grown in a defined medium. E. coli strain MG1655 was allowed to grow overnight in MOPS 0.2% glucose medium (Teknova, Half Moon Bay, Calif.) at 42° C. or 28° C. The following day, the cultures were diluted into fresh medium and allowed to grow at the same temperature until in the log phase of growth. […] To these were added 10 μL of the log phase cultures and the tubes were immediately placed in shaking incubators at 42° C. or 28° C. or left on ice for 30 min. […] Then 5 μL of the undiluted treated cultures were spotted on LB agar plates. Subsequent 10-fold serial dilutions of 10^−3, 10^−4, 10^−5 and 10^−6 of the exposed cultures were done by serial pipetting of 20 μL, starting with the 10^−2 dilution cultures, into 180 μL of LB medium in the microplate, using a multi-channel pipette. Prior to each transfer, the cultures were mixed by pipetting up and down six times. Each dilution (5 μL) was spotted onto an LB plate using a multi-channel pipette and allowed to soak into the plate. The plates were inverted and incubated overnight at 37° C. […] Survival of 0% was recorded when no colonies in the spots of the undiluted or any of the serial dilutions were observed.

[2] = 1.5 % (w/v) 1-butanol, grown at 28° C.
[3] = 1.5 % (w/v) 1-butanol, grown at 42° C.
[4] = 2.0 % (w/v) 1-butanol, grown at 28° C.
[5] = 2.0 % (w/v) 1-butanol, grown at 42° C.
[6] = 3.0 % (w/v) 1-butanol, grown at 28° C.
[7] = 3.0 % (w/v) 1-butanol, grown at 42° C.
[8] = 4.0 % (w/v) 1-butanol, grown at 28° C.
[9] = 4.0 % (w/v) 1-butanol, grown at 42° C.
[10] = […] (w/v) 1-butanol, grown at 42° C.

Question: With 1-butanol as the substance, how does the “Growth at 37° C.” value ([1]; 1.0 % w/v 1-butanol) read?
Answer: +

Question: What about the “Growth at 37° C.” value ([1]; 1.2 % w/v 1-butanol) of the same substance?
Answer: +

Question: And the “Growth at 37° C.” value ([1]; 1.4 % w/v 1-butanol)?
Answer: +

Question: What about the “Growth at 25° C.” value ([1]; 1.5 % w/v 1-butanol) of the same substance?
Answer: +

Question: And the “Growth at 30° C.” value ([1]; 1.5 % w/v 1-butanol)?
Answer: +

Question: And the “Growth at 37° C.” value ([1]; 1.5 % w/v 1-butanol)?
Answer: +

Question: What about the “Growth at 37° C.” value ([1]; 1.6 % w/v 1-butanol) of the same substance?
Answer: +

Question: What about the “Growth at 37° C.” value ([1]; 1.8 % w/v 1-butanol) of the same substance?
Answer: +

Question: What about the “Growth at 25° C.” value ([1]; 2.0 % w/v 1-butanol) of the same substance?
Answer: +

Question: And the “Growth at 30° C.” value ([1]; 2.0 % w/v 1-butanol)?
Answer: +

Question: What about the “Growth at 37° C.” value ([1]; 2.0 % w/v 1-butanol) of the same substance?
Answer: +

Question: And the “Growth at 37° C.” value ([1]; 2.1 % w/v 1-butanol)?
Answer: +

Question: And the “Growth at 37° C.” value ([1]; 2.2 % w/v 1-butanol)?
Answer: +

Question: What about the “Growth at 37° C.” value ([1]; 2.3 % w/v 1-butanol) of the same substance?
Answer: +

Question: And the “Growth at 25° C.” value ([1]; 2.4 % w/v 1-butanol)?
Answer: +

Question: And the “Growth at 30° C.” value ([1]; 2.4 % w/v 1-butanol)?
Answer: +

Question: And the “Growth at 37° C.” value ([1]; 2.4 % w/v 1-butanol)?
Answer: −^2

Question: And the “Growth at 30° C.” value ([1]; 2.7 % w/v 1-butanol)?
Answer: +

Question: And the “Growth at 37° C.” value ([1]; 2.7 % w/v 1-butanol)?
Answer: −

Question: And the “Growth at 25° C.” value ([1]; 2.9 % w/v 1-butanol)?
Answer: +

Question: What about the “Growth at 30° C.” value ([1]; 2.9 % w/v 1-butanol) of the same substance?
Answer: −

Question: What about the “Growth at 37° C.” value ([1]; 2.9 % w/v 1-butanol) of the same substance?
Answer: −

Question: What about the “Growth at 25° C.” value ([1]; 3.1 % w/v 1-butanol) of the same substance?
Answer: +

Question: And the “Growth at 30° C.” value ([1]; 3.1 % w/v 1-butanol)?
Answer: −

Question: And the “Growth at 37° C.” value ([1]; 3.1 % w/v 1-butanol)?
Answer: −

Question: What about the “Growth at 25° C.” value ([1]; 3.2 % w/v 1-butanol) of the same substance?
Answer: −

Question: And the “Growth at 30° C.” value ([1]; 3.2 % w/v 1-butanol)?
Answer: −

Question: And the “Growth at 25° C.” value ([1]; 3.3 % w/v 1-butanol)?
Answer: −

Question: What about the “Growth at 25° C.” value ([1]; 3.4 % w/v 1-butanol) of the same substance?
Answer: −

Question: What about the “Growth at 30° C.” value ([1]; 3.4 % w/v 1-butanol) of the same substance?
Answer: −

Question: What about the “concentration in which growth was observed” value ([1]; 25° C.) of the same substance?
Answer: 3.1%

Question: What about the “concentration in which growth was not observed” value ([1]; 30° C.) of the same substance?
Answer: 2.9%

Question: And the “concentration in which growth was observed” value ([1]; 30° C.)?
Answer: 2.7%

Question: And the “concentration in which growth was not observed” value ([1]; 37° C.)?
Answer: 2.4%

Question: And the “concentration in which growth was observed” value ([1]; 37° C.)?
Answer: 2.3%

Question: What about the “Growth at 37° C.” value ([1]; […] w/v 1-butanol) of the same substance?
Answer: −

Question: What about the “% survival after 30 min exposure at 42° C.” value (“% survival … at 42° C.” below) (E. coli strain MG1655; 1.0 % (w/v) 1-butanol, grown at 28° C.) of the same substance?
Answer: 100%

Question: And the “% survival … at 42° C.” value (E. coli strain MG1655; 1.0 % (w/v) 1-butanol, grown at 42° C.)?
Answer: 100%

Question: And the “% survival after 30 min exposure at 28° C.” value (“% survival … at 28° C.” for short) (E. coli strain MG1655; [2])?
Answer: 100%

Question: What about the “% survival … at 42° C.” value (E. coli strain MG1655; [2]) of the same substance?
Answer: 0%

Question: And the “% survival … at 28° C.” value (E. coli strain MG1655; [3])?
Answer: 100%

Question: And the “% survival … at 42° C.” value (E. coli strain MG1655; [3])?
Answer: 0%

Question: And the “% survival … at 28° C.” value (E. coli strain MG1655; [4])?
Answer: 100%

Question: And the “% survival … at 42° C.” value (E. coli strain MG1655; [4])?
Answer: 0%

Question: What about the “% survival … at 28° C.” value (E. coli strain MG1655; [5]) of the same substance?
Answer: 100%

Question: What about the “% survival … at 42° C.” value (E. coli strain MG1655; [5]) of the same substance?
Answer: 0%

Question: What about the “% survival … at 28° C.” value (E. coli strain MG1655; [6]) of the same substance?
Answer: 0%

Question: And the “% survival … at 42° C.” value (E. coli strain MG1655; [6])?
Answer: 0%

Question: What about the “% survival after 30 min exposure at 0° C.” value (from here on “% survival … at 0° C.”) (E. coli strain MG1655; 3.0 % (w/v) 1-butanol, grown at 29° C.) of the same substance?
Answer: 100%

Question: What about the “% survival … at 0° C.” value (E. coli strain MG1655; [7]) of the same substance?
Answer: 100%

Question: What about the “% survival … at 28° C.” value (E. coli strain MG1655; [7]) of the same substance?
Answer: 0%

Question: And the “% survival … at 42° C.” value (E. coli strain MG1655; [7])?
Answer: 0%

Question: What about the “% survival … at 28° C.” value (E. coli strain MG1655; [8]) of the same substance?
Answer: 0%

Question: And the “% survival … at 42° C.” value (E. coli strain MG1655; [8])?
Answer: 0%

Question: And the “% survival … at 0° C.” value (E. coli strain MG1655; 4.0 % (w/v) 1-butanol, grown at 29° C.)?
Answer: 100%

Question: What about the “% survival … at 0° C.” value (E. coli strain MG1655; [9]) of the same substance?
Answer: 100%

Question: And the “% survival … at 28° C.” value (E. coli strain MG1655; [9])?
Answer: 0.001%

Question: And the “% survival … at 42° C.” value (E. coli strain MG1655; [9])?
Answer: 0%

Question: What about the “% survival … at 0° C.” value (E. coli strain MG1655; 5.0 % (w/v) 1-butanol, grown at 29° C.) of the same substance?
Answer: 50%

Question: And the “% survival … at 0° C.” value (E. coli strain MG1655; 5.0 % (w/v) 1-butanol, grown at 42° C.)?
Answer: 10%

Question: And the “% survival … at 0° C.” value (E. coli strain MG1655; 6.0 % (w/v) 1-butanol, grown at 29° C.)?
Answer: 1%

Question: And the “% survival … at 0° C.” value (E. coli strain MG1655; 6.0 % (w/v) 1-butanol, grown at 42° C.)?
Answer: 1%

Question: What about the “% survival … at 42° C.” value (E. coli strain MG1655; […] (w/v) 1-butanol, grown at 28° C.) of the same substance?
Answer: 0%

Question: What about the “% survival … at 0° C.” value (E. coli strain MG1655; […] (w/v) 1-butanol, grown at 29° C.) of the same substance?
Answer: 100%

Question: What about the “% survival … at 0° C.” value (E. coli strain MG1655; [10]) of the same substance?
Answer: 100%

Question: And the “% survival … at 42° C.” value (E. coli strain MG1655; [10])?
Answer: 0%
